In BindingDB's records for doi:10.7270/Q2P26WJQ (The Scripps Research Institute Molecular Screening Center, 2009) one finds IC50 data, which are given here for seven compounds.

pIC50: −log10 of the molar value. A value given as a limit tells only on which side of the number the result lay.

Chain of Transitional endoplasmic reticulum ATPase (P55072 whole entry): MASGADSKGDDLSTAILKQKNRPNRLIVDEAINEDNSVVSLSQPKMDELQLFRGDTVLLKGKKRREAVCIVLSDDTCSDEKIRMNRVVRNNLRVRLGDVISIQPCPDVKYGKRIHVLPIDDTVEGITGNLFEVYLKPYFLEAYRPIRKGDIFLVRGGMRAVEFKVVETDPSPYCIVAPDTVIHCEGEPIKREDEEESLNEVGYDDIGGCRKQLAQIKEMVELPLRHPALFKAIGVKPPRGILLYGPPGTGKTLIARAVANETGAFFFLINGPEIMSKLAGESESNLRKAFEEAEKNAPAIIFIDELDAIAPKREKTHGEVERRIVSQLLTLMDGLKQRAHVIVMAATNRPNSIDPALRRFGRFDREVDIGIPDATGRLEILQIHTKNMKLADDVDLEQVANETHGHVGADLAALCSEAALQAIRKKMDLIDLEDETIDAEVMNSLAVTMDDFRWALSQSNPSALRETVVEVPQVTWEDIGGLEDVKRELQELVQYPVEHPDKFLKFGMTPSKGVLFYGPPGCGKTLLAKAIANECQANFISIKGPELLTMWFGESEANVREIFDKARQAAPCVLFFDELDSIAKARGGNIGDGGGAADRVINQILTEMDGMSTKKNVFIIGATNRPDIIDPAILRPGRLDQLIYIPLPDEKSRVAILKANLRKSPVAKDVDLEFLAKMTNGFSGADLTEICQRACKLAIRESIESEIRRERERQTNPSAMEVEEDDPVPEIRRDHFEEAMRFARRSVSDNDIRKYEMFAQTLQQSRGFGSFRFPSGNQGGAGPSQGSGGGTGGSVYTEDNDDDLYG

The assay has as its target Transitional endoplasmic reticulum ATPase (Homo sapiens, UniProt P55072). As to the kind of experiment: p97 ATPase inhibitors, dose response, biochemical (AID 1534).
On to `Oc1ccc(CN=Nc2ccnc3cc(Cl)ccc23)cc1O` [(4Z)-4-[[2-(7-chloroquinolin-4-yl)hydrazinyl]methylidene]-2-hydroxycyclohexa-2,5-dien-1-one], for which the pIC50 – broadly, the negative decadic logarithm of the IC50, by convention in mol/L – is 4.44.

`COc1ccc(CN=Nc2nnc(-c3ccccc3)c(=O)[nH]2)cc1` [4-methoxybenzaldehyde (5-oxo-6-phenyl-4,5-dihydro-1,2,4-triazin-3-yl)hydrazone] had a pIC50 of less than 4.30.

Consider `NS(=O)(=O)c1ccc(N=NCc2ccc(O)c(O)c2O)c([N+](=O)[O-])c1` [4-[[(E)-(2,3-dihydroxy-4-oxo-1-cyclohexa-2,5-dienylidene)methyl]hydrazo]-3-nitrobenzenesulfonamide], for which the pIC50 is less than 4.30.

Compound `Cc1ccc(C)c(SCC(=O)OCC(=O)C(C#N)c2nc3ccccc3[nH]2)c1` (configuration not stated) [MLS000392255] gave a pIC50 of less than 4.30.

Compound `Cc1ccc(SCC(=O)C(C#N)c2nc3ccccc3s2)cc1` (configuration not stated) [(2Z)-2-(3H-1,3-benzothiazol-2-ylidene)-3-keto-4-(p-tolylthio)butyronitrile] had a pIC50 of less than 4.30.

Compound `CN(C)[C@@H]1C(=O)C(C(N)=O)C(=O)[C@@]2(O)C(=O)C3C(=O)c4c(O)cccc4[C@@](C)(O)[C@H]3[C@H](O)[C@@H]12` (stereo partly drawn) [(2E,4S,4aR,5S,5aR,6S,12aS)-2-[azanyl(oxidanyl)methylidene]-4-(dimethylamino)-6-methyl-5,6,10,11,12a-pentakis(oxidanyl)-4,4a,5,5a-tetrahydrotetracene-1,3,12-trione] showed a pIC50 of less than 4.30.

`On1[o+]nc2c1CCc1nc(-c3ccccc3)[n-]c1-2` [3-oxidanidyl-7-phenyl-4,5-dihydro-1H-imidazo[4,5-g][2,1,3]benzoxadiazol-3-ium]: the pIC50 was less than 4.30.
